The results in this text go back to patent US7105513B2, “Acylated, heteroaryl-condensed cycloalkenylamines and their use as pharmaceuticals” (Sanofi-Avertis Deutschland GmbH, priority 2002, dated 2006).

Where a name gives a salt, the structure may show the parent alone.

For this experiment, the system named is eNOS promoter. As to the kind of experiment: Activation of eNOS transcription (eNOS promoter-luciferase reporter gene assay). The experiment is classed as cell-based. The note with it: Homo sapiens, Endothelial cell, 18 h, human endothelial cell line stably transfected with eNOS promoter-firefly luciferase construct; 18 h incubation; EC50 determined graphically; read-out: EC50 of transcription induction ratio (TIR). The protocol: Determination of Activation of eNOS Transcription
Activation of eNOS transcription was determined as described in detail in Li et al., “Activation of protein kinase C alpha and/or epsilon enhances transcription of the human endothelial nitric oxide synthase gene”, Mol. Pharmacol. 53 (1998) 630, the content of which is incorporated herein by reference.
Briefly, a 3.5 kB long fragment 5′ of the starting codon of the eNOS gene was cloned, sequenced and cloned in firefly luciferase expression plasmids to monitor activation of the eNOS promoter by reporter gene activity. A human endothelial cell line stable transfected and expressing this promoter-reporter construct was used for compound testing. Cells were incubated for 18 h with compounds.
All compounds were dissolved in sterile dimethyl sulfoxide (DMSO). A final concentration of 0.5% DMSO in complete medium was allowed. Induction of reporter gene expression in these cells was measured using a standard luciferase assay system (Promega, Cat. No E150) according to the manufacturer's instructions. Luciferase induction in cells incubated with compounds were compared to those incubated with solvent alone. The ratio of both activities (transcription induction ratio, TIR) was plotted as a function of compound concentration,. Typically, TIR values started at low concentrations at a ratio of 1, indicating no compound effect, and extended up to a maximum TIR value TIR(max) which indicates the increase of the eNOS transcription. EC50 values of transcription induction ratios as a function of compound concentration were determined graphically.
(In general: A reporter such as luciferase makes a cellular process visible.)
Regarding `COc1ccc(C(=O)NC2Cc3ccsc3C2)cn1` (stereo not drawn) [Example 14, N-(5,6-Dihydro-4 H-cyclopenta[b]thiophen-5-yl)-6-methoxynicotinamide], the EC50 stood at 2.4 µM. With `Cc1ccc(C(=O)NC2Cc3ccsc3C2)c(C)n1` (stereo not drawn) [Example 13, N-(5,6-Dihydro-4H-cyclopenta[b]thiophen-5-yl)-2,6-dimethylnicotinamide, trifluoroacetic acid salt] the figure was 0.62 µM; with `Nc1nccnc1C(=O)NC1Cc2ccsc2C1` (stereo not drawn) [Example 25, 3-Aminopyrazine-2-carboxylic acid (5,6-dihydro-4H-cyclopenta[b]thiophen-5-yl)amide], 18 µM. With `O=C(NC1Cc2ccsc2C1)c1cccc(Cl)c1Cl` (stereo not drawn) [Example 26, 2,3-Dichloro-N-(5,6-dihydro-4H-cyclopenta[b]thiophen-5-yl)benzamide], the EC50 was 1.5 µM. With `Cc1ccc(C(=O)NC2Cc3ccsc3C2)c(C)c1` (stereo not drawn) [Example 27, N-(5,6-Dihydro-4H-cyclopenta[b]thiophen-5-yl)-2,4-dimethylbenzamide], the EC50 is less than 0.1 µM. With `Cc1nn(C)cc1C(=O)NC1Cc2ccsc2C1` (stereo not drawn) [Example 20, 1,3-Dimethyl-1H-pyrazole-4-carboxylic acid (5,6-dihydro-4H-cyclopenta[b]thiophen-5-yl)amide] the figure was 9.8 µM; with `CS(=O)(=O)Nc1cccc(C(=O)NC2Cc3ccsc3C2)c1` (stereo not drawn) [Example 29, N-(5,6-Dihydro-4H-cyclopenta[b]thiophen-5-yl)-3-methylsulfonylaminobenzamide], 2.3 µM. With `COc1ccc(C(=O)NC2Cc3cccnc3C2)cn1` (single isomer, unassigned; enantiomer 1) [Example 6, N-(6,7-Dihydro-5H-[1]pyrindin-6-yl)-6-methoxynicotinamide (enantiomer 1)] the figure was 12 µM; with `Cc1ccc(C(=O)NC2Cc3ccsc3C2)c(Cl)n1` (stereo not drawn) [Example 23, 2-Chloro-N-(5,6-dihydro-4H-cyclopenta[b]thiophen-5-yl)-6-methylnicotinamide], 0.8 µM. With `Cc1nc(C)c(C(=O)NC2Cc3ccsc3C2)s1` (stereo not drawn) [Example 19, 2,4-Dimethylthiazole-5-carboxylic acid (5,6-dihydro-4H-cyclopenta[b]thiophen-5-yl)amide], the EC50 stood at 20 µM.

Turning to `O=C(NC1Cc2cccnc2C1)c1ccc(Cl)cc1` (single isomer, unassigned; enantiomer 1) [Example 10, 4-Chloro-N-(6,7-dihydro-5H-[1]pyrindin-6-yl)benzamide (enantiomer 1), trifluoroacetic acid salt], the EC50 is 0.8 µM. With `O=C(NC1Cc2ccsc2C1)c1cccc(N2CCOCC2)c1` (stereo not drawn) [Example 31, N-(5,6-Dihydro-4H-cyclopenta[b]thiophen-5-yl)-3-(morpholin-4-yl)benzamide] the figure was 3.3 µM; with `Cc1nc2ccc(C(=O)NC3Cc4cccnc4C3)cc2[nH]1` (single isomer, unassigned; enantiomer 1) [Example 7, 2-Methyl-3H-benzimidazole-5-carboxylic acid (6,7-dihydro-5H-[1]pyrindin-6-yl)amide (enantiomer 1)], 23 µM. With `COCc1ccc(C(=O)NC2Cc3cccnc3C2)cn1` (single isomer, unassigned; enantiomer 1) [Example 8, N-(6,7-Dihydro-5H-[1]pyrindin-6-yl)-6-methoxymethyinicotinamide (enantiomer 1)] the figure was 30 µM; with `Cc1nc2ccc(C(=O)NC3Cc4ccsc4C3)cc2[nH]1` (stereo not drawn) [Example 15, 2-Methyl-3H-benzimidazole-5-carboxylic acid (5,6-dihydro-4H-cyclopenta[b]thiophen-5-yl)amide, trifluoroacetic acid salt], 3.1 µM; with `O=C(NC1Cc2ccsc2C1)c1ccc(F)cc1F` (stereo not drawn) [Example 28, N-(5,6-Dihydro-4H-cyclopenta[b]thiophen-5-yl)-2,4-difluorobenzamide], 0.76 µM. With `O=C(NC1Cc2ccsc2C1)c1ccc(N2CCOCC2)nc1` (stereo not drawn) [Example 30, N-(5,6-Dihydro-4H-cyclopenta[b]thiophen-5-yl)-6-(morpholin-4-yl)nicotinamide, trifluoroacetic acid salt] the figure was 11 µM; with `Cc1cc(C(=O)NC2Cc3ccsc3C2)c(C)n1Cc1ccncc1` (stereo not drawn) [Example 18, 2,5-Dimethyl-1-pyridin-4-ylmethyl-1H-pyrrole-3-carboxylic acid (5,6-dihydro-4H-cyclopenta[b]thiophen-5-yl)amide, trifluoroacetic acid salt], 3.3 µM; with `Cc1ccc(C(=O)NC2CCCc3cccnc3C2)c(C)c1` (stereo not drawn) [Example 11, 2,4-Dimethyl-N-(6,7,8,9-tetrahydro-5H-cyclohepta[b]pyridin-8-yl)benzamide], 0.064 µM. As for `Nc1ncccc1C(=O)NC1Cc2ccsc2C1` (stereo not drawn) [Example 21, 2-Amino-N-(5,6-dihydro-4H-cyclopenta[b]thiophen-5-yl)nicotinamide, trifluoroacetic acid salt], the EC50 is 4.8 µM. With `Cc1cnc(C(=O)NC2Cc3ccsc3C2)c(N)n1` (stereo not drawn) [Example 12, 3-Amino-5-methylpyrazine-2-carboxylic acid (5,6-dihydro4H-cyclopenta[b]thiophen-5-yl)amide] the figure was 11 µM. In the case of `Cc1c(C(=O)NC2Cc3ccsc3C2)cnn1-c1ccccc1` (stereo not drawn) [Example 16, 5-Methyl-1-phenyl-1H-pyrazole-4-carboxylic acid (5,6-dihydro-4H-cyclopenta[b]thiophen-5-yl)amide], the EC50 was determined as 0.2 µM. Consider `O=C(NC1Cc2cccnc2C1)c1ccc2c(c1)OC(F)(F)O2` (single isomer, unassigned; enantiomer 1) [Example 9, 2,2-Difluorobenzo[1,3]dioxole-5-carboxylic acid (6,7-dihydro-5H-[1]pyrindin-6-yl)amide (enantiomer 1), trifluoroacetic acid salt], for which the EC50 was 0.93 µM.

Regarding `O=C(NC1Cc2ccsc2C1)c1cnn(-c2ccccc2)c1C(F)(F)F` (stereo not drawn) [Example 17, 1-Phenyl-5-trifluoromethyl-1H-pyrazole-4-carboxylic acid (5,6-dihydro-4H-cyclopenta[b]thiophen-5-yl)amide], the EC50 came out at 0.35 µM.

`Cc1ccc(C(=O)NC2Cc3ccsc3C2)cn1` (stereo not drawn) [Example 22, N-(5,6-Dihydro-4H-cyclopenta[b]thiophen-5-yl)-6-methylnicotinamide, trifluoroacetic acid salt]: the EC50 is 1.6 µM.

On to `Cc1ccc(C(=O)NC2Cc3cccnc3C2)c(C)n1` (single isomer, unassigned; enantiomer 1) [Example 5, N-(6,7-Dihydro-5H-[1]pyrindin-6-yl)-2,6-dimethylnicotinamide (enantiomer 1)], for which the EC50 is 3.3 µM.

For `COCc1ccc(C(=O)NC2Cc3ccsc3C2)cn1` (stereo not drawn) [Example 24, N-(5,6-Dihydro4H-cyclopenta[b]thiophen-5-yl)-6-methoxymethylnicotinamide, trifluoroacetic acid salt], the EC50 amounted to 125 µM.
